Experimental data as given in ChEMBL document CHEMBL4421728, “Bach1 Inhibitors in Combination with Nrf2 Activators and Pharmaceutical Compositions Thereof” (2017).

Tests used:
[1] = molecular target: T1, Transcription regulator protein BACH1 (Homo sapiens) (UniProt O14867); assay: Inhibition of Bach1 in normal human lung fibroblasts assessed as induction of HMOX protein expression at 0.625 uM incubated for 16 to 18 hrs in presence of 0.039 uM Nrf2 activator Bardoxolone methyl by immunostaining relative to control
T1 sequence (whole entry): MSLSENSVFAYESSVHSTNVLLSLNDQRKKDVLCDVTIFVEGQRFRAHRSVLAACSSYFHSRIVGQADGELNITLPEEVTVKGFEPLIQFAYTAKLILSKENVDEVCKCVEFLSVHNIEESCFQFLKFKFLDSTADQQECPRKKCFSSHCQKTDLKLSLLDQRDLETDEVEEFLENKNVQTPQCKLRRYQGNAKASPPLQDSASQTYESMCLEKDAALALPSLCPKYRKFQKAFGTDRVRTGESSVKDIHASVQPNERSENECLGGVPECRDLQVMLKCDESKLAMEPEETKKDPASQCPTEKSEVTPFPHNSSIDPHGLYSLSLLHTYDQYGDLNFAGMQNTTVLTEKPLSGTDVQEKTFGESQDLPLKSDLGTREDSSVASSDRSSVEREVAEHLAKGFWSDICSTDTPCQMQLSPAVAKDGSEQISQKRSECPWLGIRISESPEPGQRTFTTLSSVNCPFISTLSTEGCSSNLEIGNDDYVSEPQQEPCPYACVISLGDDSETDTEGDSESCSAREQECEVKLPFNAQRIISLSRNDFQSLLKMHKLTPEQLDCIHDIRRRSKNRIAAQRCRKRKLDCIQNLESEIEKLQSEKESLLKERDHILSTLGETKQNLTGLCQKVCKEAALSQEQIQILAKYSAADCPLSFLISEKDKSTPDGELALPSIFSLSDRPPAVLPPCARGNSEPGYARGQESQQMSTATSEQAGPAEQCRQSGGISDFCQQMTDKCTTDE

[2] = molecular target: T1, Transcription regulator protein BACH1 (Homo sapiens); assay: Inhibition of Bach1 in normal human lung fibroblasts assessed as induction of HMOX protein expression at 0.078 uM incubated for 16 to 18 hrs in presence of 0.0024 uM Nrf2 activator Bardoxolone methyl by immunostaining relative to control
[3] = molecular target: T1, Transcription regulator protein BACH1 (Homo sapiens); assay: Inhibition of Bach1 in normal human lung fibroblasts assessed as induction of HMOX protein expression at 0.312 uM incubated for 16 to 18 hrs in presence of 0.039 uM Nrf2 activator Bardoxolone methyl by immunostaining relative to control
[4] = molecular target: T1, Transcription regulator protein BACH1 (Homo sapiens); assay: Inhibition of Bach1 in normal human lung fibroblasts assessed as induction of HMOX protein expression at 2.5 uM incubated for 16 to 18 hrs in presence of 0.312 uM Nrf2 activator Bardoxolone methyl by immunostaining relative to control
[5] = molecular target: T1, Transcription regulator protein BACH1 (Homo sapiens); assay: Inhibition of Bach1 in normal human lung fibroblasts assessed as induction of HMOX protein expression at 0.039 uM incubated for 16 to 18 hrs in presence of 0.0024 uM Nrf2 activator Bardoxolone methyl by immunostaining relative to control
[6] = molecular target: T1, Transcription regulator protein BACH1 (Homo sapiens); assay: Inhibition of Bach1 in normal human lung fibroblasts assessed as induction of HMOX protein expression at 0.625 uM incubated for 16 to 18 hrs in presence of 0.156 uM Nrf2 activator Bardoxolone methyl by immunostaining relative to control
[7] = molecular target: T1, Transcription regulator protein BACH1 (Homo sapiens); assay: Inhibition of Bach1 in normal human lung fibroblasts assessed as induction of HMOX protein expression at 0.039 uM incubated for 16 to 18 hrs in presence of 0.0048 uM Nrf2 activator Bardoxolone methyl by immunostaining relative to control
[8] = molecular target: T1, Transcription regulator protein BACH1 (Homo sapiens); assay: Inhibition of Bach1 in normal human lung fibroblasts assessed as induction of HMOX protein expression at 0.039 uM incubated for 16 to 18 hrs in presence of 0.312 uM Nrf2 activator Bardoxolone methyl by immunostaining relative to control
[9] = molecular target: T1, Transcription regulator protein BACH1 (Homo sapiens); assay: Inhibition of Bach1 in normal human lung fibroblasts assessed as induction of HMOX protein expression at 1.25 uM incubated for 16 to 18 hrs in presence of 0.0048 uM Nrf2 activator Bardoxolone methyl by immunostaining relative to control
[10] = molecular target: T1, Transcription regulator protein BACH1 (Homo sapiens); assay: Inhibition of Bach1 in normal human lung fibroblasts assessed as induction of HMOX protein expression at 0.156 uM incubated for 16 to 18 hrs in presence of 0.156 uM Nrf2 activator Bardoxolone methyl by immunostaining relative to control
[11] = molecular target: T1, Transcription regulator protein BACH1 (Homo sapiens); assay: Inhibition of Bach1 in normal human lung fibroblasts assessed as induction of HMOX protein expression at 1.25 uM incubated for 16 to 18 hrs in presence of 0.0097 uM Nrf2 activator Bardoxolone methyl by immunostaining relative to control
[12] = molecular target: T1, Transcription regulator protein BACH1 (Homo sapiens); assay: Inhibition of Bach1 in normal human lung fibroblasts assessed as induction of HMOX protein expression at 0.312 uM incubated for 16 to 18 hrs in presence of 0.0024 uM Nrf2 activator Bardoxolone methyl by immunostaining relative to control
[13] = molecular target: T1, Transcription regulator protein BACH1 (Homo sapiens); assay: Inhibition of Bach1 in normal human lung fibroblasts assessed as induction of HMOX protein expression at 2.5 uM incubated for 16 to 18 hrs in presence of 0.019 uM Nrf2 activator Bardoxolone methyl by immunostaining relative to control
[14] = molecular target: T1, Transcription regulator protein BACH1 (Homo sapiens); assay: Inhibition of Bach1 in normal human lung fibroblasts assessed as induction of HMOX protein expression at 2.5 uM incubated for 16 to 18 hrs in presence of 0.156 uM Nrf2 activator Bardoxolone methyl by immunostaining relative to control
[15] = molecular target: T1, Transcription regulator protein BACH1 (Homo sapiens); assay: Inhibition of Bach1 in normal human lung fibroblasts assessed as induction of HMOX protein expression at 0.312 uM incubated for 16 to 18 hrs in presence of 0.156 uM Nrf2 activator Bardoxolone methyl by immunostaining relative to control
[16] = molecular target: T1, Transcription regulator protein BACH1 (Homo sapiens); assay: Inhibition of Bach1 in normal human lung fibroblasts assessed as induction of HMOX protein expression at 0.312 uM incubated for 16 to 18 hrs in presence of 0.312 uM Nrf2 activator Bardoxolone methyl by immunostaining relative to control
[17] = molecular target: T1, Transcription regulator protein BACH1 (Homo sapiens); assay: Inhibition of Bach1 in normal human lung fibroblasts assessed as induction of HMOX protein expression at 0.312 uM incubated for 16 to 18 hrs by immunostaining relative to control
[18] = molecular target: T1, Transcription regulator protein BACH1 (Homo sapiens); assay: Inhibition of Bach1 in normal human lung fibroblasts assessed as induction of HMOX protein expression at 0.019 uM incubated for 16 to 18 hrs in presence of 0.019 uM Nrf2 activator Bardoxolone methyl by immunostaining relative to control
[19] = molecular target: T1, Transcription regulator protein BACH1 (Homo sapiens); assay: Inhibition of Bach1 in normal human lung fibroblasts assessed as induction of HMOX protein expression at 0.625 uM incubated for 16 to 18 hrs by immunostaining relative to control
[20] = molecular target: T1, Transcription regulator protein BACH1 (Homo sapiens); assay: Inhibition of Bach1 in normal human lung fibroblasts assessed as induction of HMOX protein expression at 2.5 uM incubated for 16 to 18 hrs by immunostaining relative to control
[21] = molecular target: T1, Transcription regulator protein BACH1 (Homo sapiens); assay: Inhibition of Bach1 in normal human lung fibroblasts assessed as induction of HMOX protein expression at 1.25 uM incubated for 16 to 18 hrs in presence of 0.312 uM Nrf2 activator Bardoxolone methyl by immunostaining relative to control

- fold change (FC) [1]: 17.2
- fold change (FC) [2]: 4.25
- fold change (FC) [3]: 19.6
- fold change (FC) [4]: 10
- fold change (FC) [5]: 2.32
- fold change (FC) [6]: 18.7
- fold change (FC) [7]: 3.04
- fold change (FC) [8]: 17.4
- fold change (FC) [9]: 17.3
- fold change (FC) [10]: 18.3
- fold change (FC) [11]: 16.5
- fold change (FC) [12]: 11.7
- fold change (FC) [13]: 17
- fold change (FC) [14]: 12.5
- fold change (FC) [15]: 19.2
- fold change (FC) [16]: 17.4
- fold change (FC) [17]: 9.82
- fold change (FC) [18]: 10
- fold change (FC) [19]: 15
- fold change (FC) [20]: 17.5
- fold change (FC) [21]: 10.5
Structure (SMILES): CNC(=O)c1ccc2c(c1)nc(Nc1nc3ccc(OC(F)(F)F)cc3s1)n2C
